From ChEMBL document CHEMBL5385862, “Acyloxymethyl and alkoxycarbonyloxymethyl prodrugs of a fosmidomycin surrogate as antimalarial and antibacterial agents” (Eur J Med Chem, 2023)

Experiments:
[1] = Cytotoxicity against human MRC5 cells assessed as reduction in cell viability; type: toxicity, cell-based
[2] = Selectivity index ratio of CC50 for cytotoxicity against human MRC5 cells to IC50 for antibacterial activity against Acinetobacter baumannii assessed as inhibition of bacterial growth; type: toxicity, cell-based; settings: read-out: Ratio CC50/IC50
[3] = tested on: Mycobacterium tuberculosis; test: Antitubercular activity against Mycobacterium tuberculosis H37Ra assessed as inhibition of bacterial growth; type: functional, organism-based
Plasmodium falciparum = test: Antiplasmodial activity against asexual blood stage Plasmodium falciparum K1 assessed as inhibition of parasitic growth; type: functional, organism-based
[4] = Selectivity index ratio of CC50 for cytotoxicity against human MRC5 cells to IC50 for antiplasmodial activity against asexual blood stage Plasmodium falciparum K1 assessed as inhibition of parasitic growth; type: toxicity, cell-based; settings: read-out: Ratio CC50/IC50
Acinetobacter baumannii = test: Antibacterial activity against Acinetobacter baumannii assessed as inhibition of bacterial growth; type: functional, organism-based

| SMILES | CC50 [1] | selectivity ratio [2] | IC50 [3] | IC50 (Plasmodium falciparum) | selectivity ratio [4] | IC50 (Acinetobacter baumannii) |
| --- | --- | --- | --- | --- | --- | --- |
| CN(O)C(=O)CCCP(=O)(OCOC(=O)C(C)(C)C)OCOC(=O)C(C)(C)C | > 51 µM | > 4.3 | > 56.1 µM | 0.86 µM | > 59 | 12 µM |
| CN(O)C(=O)CCCP(=O)(OCOC(=O)c1ccccc1)OCOC(=O)c1ccccc1 | 28.1 µM | 3.4 | > 64 µM | 0.12 µM | 234 | 8.2 µM |
| CC(C)OC(=O)OCOP(=O)(CCCC(=O)N(C)O)OCOC(=O)OC(C)C | > 50.7 µM |  | > 64 µM | 0.11 µM | > 461 | > 149 µM |
| CCON(C)C(=O)CCCP(=O)(OCOC(=O)c1coc(-c2ccccc2O)n1)OCOC(=O)c1coc(-c2ccccc2O)n1 | 26 µM | 1.6 | > 64 µM | 0.54 µM | 48 | 16 µM |
| CN(O)C(=O)CCCP(=O)(OCOC(=O)OCCCc1ccccc1)OCOC(=O)OCCCc1ccccc1 | > 64 µM | > 25 | > 64 µM | 0.09 µM | > 711 | 2.6 µM |
| CN(O)C(=O)CCCP(=O)(OCOC(=O)/C=C/c1ccccc1)OCOC(=O)/C=C/c1ccccc1 | 30.3 µM | 5.4 | > 64 µM | 0.05 µM | 606 | 5.6 µM |
| CN(O)C(=O)CCCP(=O)(OCOC(=O)c1ccc(Cl)cc1)OCOC(=O)c1ccc(Cl)cc1 | 31.2 µM | 0.8 | > 64 µM | 0.14 µM | 223 | 39 µM |
| CCON(C)C(=O)CCCP(=O)(OCOC(=O)c1cccc(O)c1O)OCOC(=O)c1cccc(O)c1O | > 64 µM |  | > 64 µM | 1.05 µM | > 61 | > 121 µM |
| CCCCCCCC(=O)OCOP(=O)(CCCC(=O)N(C)O)OCOC(=O)CCCCCCC | 40.3 µM | 103 | > 64 µM | 0.03 µM | 1340 | 0.39 µM |
| CN(O)C(=O)CCCP(=O)(OCOC(=O)c1cccc(Cl)c1)OCOC(=O)c1cccc(Cl)c1 | > 64 µM | > 1.2 | > 64 µM | 0.14 µM | > 457 | 54 µM |
| CCON(C)C(=O)CCCP(=O)(OCOC(=O)c1ccccc1O)OCOC(=O)c1ccccc1O | > 64 µM |  | > 64 µM | 0.28 µM | > 229 | > 129 µM |
| CCCCCCCC(=O)OCOP(=O)(OCOC(=O)CCCCCCC)C(CCC(=O)N(C)O)c1ccc(Cl)c(Cl)c1 (stereo not drawn) | 22.5 µM | 2 | > 64 µM | 0.44 µM | 51 | 11 µM |
| CN(O)C(=O)CCCP(=O)(OCOC(=O)CCCCc1ccccc1)OCOC(=O)CCCCc1ccccc1 | > 64 µM | > 27 | > 64 µM | 0.05 µM | > 1280 | 2.4 µM |
| CN(O)C(=O)CCC(c1ccc(Cl)c(Cl)c1)P(=O)(OCOC(=O)/C=C/c1ccccc1)OCOC(=O)/C=C/c1ccccc1 (stereo not drawn) | 24.6 µM |  | > 64 µM | 4.42 µM | 5.6 | > 97 µM |
| CC(C)OC(=O)OCOP(=O)(OCOC(=O)OC(C)C)C(CCC(=O)N(C)O)c1ccc(Cl)c(Cl)c1 (stereo not drawn) | 7.58 µM |  | > 64 µM | 0.23 µM | 33 | > 111 µM |
| CN(O)C(=O)CCCP(=O)(OCOC(=O)c1ccc2ccccc2c1)OCOC(=O)c1ccc2ccccc2c1 | 27.2 µM | 0.53 | > 64 µM | 0.25 µM | 109 | 51 µM |
| CN(O)C(=O)CCC(c1ccc(Cl)c(Cl)c1)P(=O)(OCOC(=O)C(C)(C)C)OCOC(=O)C(C)(C)C (stereo not drawn) | 6.81 µM |  | > 64 µM | 0.44 µM | 15 | > 112 µM |
| CCCCCCCCOC(=O)OCOP(=O)(CCCC(=O)N(C)O)OCOC(=O)OCCCCCCCC | 37.7 µM | 54 | > 64 µM | 0.07 µM | 539 | 0.7 µM |
| COc1ccc(C(=O)OCOP(=O)(CCCC(=O)N(C)O)OCOC(=O)c2ccc(OC)cc2)cc1 | 33.1 µM | 3.3 | > 64 µM | 0.18 µM | 184 | 9.9 µM |
| Cc1ccc(C(=O)OCOP(=O)(CCCC(=O)N(C)O)OCOC(=O)c2ccc(C)cc2)cc1 | > 64 µM | > 5.8 | > 64 µM | 0.57 µM | > 112 | 11 µM |
| CCON(C)C(=O)CCCP(=O)(OCOC(=O)OCc1coc(-c2ccccc2O)n1)OCOC(=O)OCc1coc(-c2ccccc2O)n1 | 25.5 µM | 3.6 | > 64 µM | 0.42 µM | 61 | 7.1 µM |
| CN(O)C(=O)CCCP(=O)(OCOC(=O)CCc1ccccc1)OCOC(=O)CCc1ccccc1 | > 64 µM | > 3 | > 64 µM | 0.09 µM | > 711 | 21 µM |
| O=CN(O)CCCP(=O)(O)O [FOSMIDOMYCIN SODIUM] | > 64 µM |  | > 64 µM |  |  |  |
